Target: T1, human adrenaline α1A receptor (Homo sapiens, UniProt P35348)
T1 construct: expressed in transfected cells; membrane fraction
T1 sequence (P35348 1-466): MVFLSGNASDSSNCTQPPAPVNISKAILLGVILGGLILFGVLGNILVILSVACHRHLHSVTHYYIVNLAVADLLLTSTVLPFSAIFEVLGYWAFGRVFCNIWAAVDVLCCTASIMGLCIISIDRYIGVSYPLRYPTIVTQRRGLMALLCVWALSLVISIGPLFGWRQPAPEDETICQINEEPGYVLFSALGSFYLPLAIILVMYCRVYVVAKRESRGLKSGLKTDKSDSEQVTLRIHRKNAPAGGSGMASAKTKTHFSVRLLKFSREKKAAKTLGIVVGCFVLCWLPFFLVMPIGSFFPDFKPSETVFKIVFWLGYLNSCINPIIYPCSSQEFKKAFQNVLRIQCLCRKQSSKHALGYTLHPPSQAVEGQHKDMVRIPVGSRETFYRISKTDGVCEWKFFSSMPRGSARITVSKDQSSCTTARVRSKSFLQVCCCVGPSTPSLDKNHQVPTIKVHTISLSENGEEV
Test: Measurement of α1A receptor binding inhibitory activity ([3H]-Prazosin binding to CHO-K1 membrane fraction)
Conditions: concentration reducing [3H]-Prazosin (2.5 nM) binding to the membrane fraction to 50%
Description: b) Measurement of α1A Receptor Binding Inhibitory Activity
The following gene manipulation method was carried out according to the method described in a textbook (Miniatis et al., Molecular Cloning, Cold Spring Harbor Laboratory, 1989) or the method described in protocol attached to a reagent.
(i) Preparation of Expression Plasmid for Human Adrenaline α1A Receptor
An adrenaline α1A receptor gene was cloned from a human liver cDNA by a PCR method. A PCR reaction was performed with Gene Amp PCR System 9700 (Applied Biosystems) using 200 ng of a human liver cDNA library (TAKARA SHUZO Co., Ltd.) as a template and using TaKaRa Pyrobest DNA Polymerase (TAKARA SHUZO CO., Ltd) and adding each 50 pmol of a primer set 5′-[…]-3′ [SEQ ID No.: 1] and 5′-[…]-3[SEQ ID No.: 2] prepared making reference to a nucleotide sequence of an adrenaline α1A receptor gene which was reported by Hirasawa A. et al. (Biochem. Biophys. Res. Commun., 195, 902–909(1993)) (reaction condition: 45 cycles of 15 seconds at 94° C., and 3 minutes 30 seconds at 68° C.).
The obtained PCR fragment was digested with restriction enzymes Eco RI (TAKARA SHUZO Co. Ltd.) and Sal I. (TAKARA SHUZO Co. Ltd.), and agarose gel electrophoresis was performed to recover DNA fragments. The DNA fragments were mixed with an animal cell expression plasmid pMSR αneo (Administration No. A99–0013) which had been digested with Eco RI and Sal I, ligated with DNA Ligation Kit Ver. 2 (TAKARA SHUZO Co. Ltd.), and a competent cell of Esherichia coli JM109 was transformed to obtain a plasmid pMSR αneoA dreα1A.
(ii) Introduction of Plasmid for Expression of Human Adrenaline α1A Receptor into CHO-K1 Cell and Preparation of Membrane Fraction
CHO-K1 cells which had been subcultured in a 150 cm^2 culturing flask (Corning Coaster) using Ham F12 medium (Invitrogen) containing 10% fetal bovine serum (TRACE SCIENTIFIC) was peeled with 0.5 g/L trypsin-0.2 g/L EDTA(Invitrogen), cells were washed with D-PBS(−) (Invitrogen), centrifuged (1000 rpm, 5 min.), and suspended in D-PBS(−). […]

COc1ccccc1CCNCCCCCC(=O)c1cc2c3c(c1)CCN3C(=O)CC2.Cl [Example 20, 8-(6-[[2-(2-Methoxyphenyl)ethyl]amino]hexanoyl]-1,2,5,6-tetrahydro-4H-pyrrolo[3,2,1-ij]quinolin-4-one hydrochloride]
IC50: 165 nM

— patent US7132547B2, “Preventives/remedies for urinary disturbance” (priority 2001, dated 2006)
